Molecular target: T1, BCL6 (Homo sapiens, UniProt P41182)
T1 construct: endogenous in cells; host or cells: T47D breast cancer epithelial cells
Assay: Immunofluorescence high content imaging of BCL6 degradation in T47D cells
Assay type: cell-based
Conditions: T47D breast cancer epithelial cells, 3 days incubation
Experimental: Immunofluorescence Protocol for High Content Imaging of BCL6
T47D cells were seeded in 100 μl volume of RPMI11640-10% FBS in a 96-well black/clear bottom plates for adherent lines (Corning #3904).
Day 1. T47D breast cancer epithelial cells were seeded at a density so that confluence is ˜70-90% at endpoint. Cells were seeded at 7K/0.1 mL/well the morning prior to the addition of exemplary bifunctional degradation compounds.
Day 2. Prepare an 11 point 3-fold serial dilution of exemplary bifunctional compound in DMSO and aliquot an appropriate volume to cell growth media to generate a 2× final concentration of exemplary bifunctional compound. Add an equal volume (0.1 ml) of 2× exemplary bifunctional compound/media mix to previously plated cells, for a final top concentration in aqueous cell growth media of 0.1 or 1 μM. Incubate for 3 days at 37° C., 5% CO2.
Day 5 Immunofluorescence. Discard cell media. Wash wells with 200 μl of room temperature phosphate-buffered saline (PBS). Prepared 4% paraformaldehyde (PFA) from 16% PFA (Electron Microscopy Sciences #15710) using 1×PBS. Fifty μL of 4% PF was added to each well and incubate for 15 minutes at room temperature to fix the cells. The PFA was aspirated and the cells washed twice with PBS (200 μL)).
Prepared 0.1% Triton X-100 in PBS using 10% triton X-100 stock. The cells were permeabilized by adding 100 μL of the 0.1% Triton X-100 in PBS to each well to permeabilize cells and incubating at room temperature for 15 minutes. Cells were washed twice with PBS.
Prepared 3% BSA/PBS (from Thermofisher #37515 Blocker BSA in TBS, 10%), and 100 μL was added to each well. The cells were incubated for at least 1 hour at room temperature.
Prepared 1% BSA/PBS using Blocker BSA/PBS, and the 3% BSA/PBS removed from the wells.
For no primary antibody controls, 50 μL 1% BSA/PBS was added.
Primary antibody (BCL6 Rb Ab, CST-14895, Cell Signaling) was diluted 1:300 in 1% BSA/PBS using Blocker BSA/PBS.
Fifty μl of primary antibody added to all remaining wells (i.e., all wells other than the primary antibody controls) and the cells were incubated overnight at 4° C. with slow orbital movement.
Day 6. Contents of the wells was removed and the cells washed four times with 200 μL PBS. 1% BSA/PBS was prepared using Blocker BSA in PBS.
Diluted secondary antibody goat anti-Rb IgG Alexa-488 1:1000, and cell mask-Alexa-647 1:3000 in 1% BSA/PBS in the same mix. Add 50 μL to each well and incubate at room temperature for 1 hour in the dark.
Cells were washed three times with 200 μL PBS, and then incubated for 10 minutes with 100 μL Hoechst dye at 1 μg/mL (20 mM stock) to stain cell nuclei. Wells were then washed with 200 μl PBS, and 100 μL of PBS was added to each well and the plate covered plate with a plastic opaque cover. Plates were stored at […] and covered in aluminum foil until imaged.
Plates were equilibrated to room temperature prior to reading. The bottom of the plate was wiped with 70% isopropanol immediately prior to imaging.
Imaging: • 10×, 4 fields/well, include Top hat smoothing in the analysis protocol.
Supplies/Reagents: • 16% paraformaldehyde: Electron Microscopy Sciences #15710 • Hoechst: Thermofisher #62249 • Blocker BSA in PBS, 10%: Thermofisher #37515 • Blocker BSA in TBS, 10%: Thermofisher #37520 • Goat anti-rabbit or mouse AlexaFluor-488: Thermofisher #A11008 • Cell mask deep red AlexaFluor-647: Thermofisher #C10046 • Wash buffer, PBS: 20×PBS, Thermofisher

| Structure (SMILES) | DC50 | Dmax |
| --- | --- | --- |
| CNC(=O)COc1cc2cc(Nc3nc(N4CCC(O[C@H]5C[C@H](N6CCN(c7ccc8nn(C9CCC(=O)NC9=O)cc8c7)CC6)C5)CC4)ncc3Cl)ccc2n(C(C)C)c1=O (some centres unmarked) [Compound 22, 2-({6-[(5-chloro-2-{4-[(1r,3r)-3-{4-[2-(2,6-dioxopiperidin-3-yl)-2H-indazol-5-yl]piperazin-1-yl}cyclobutoxy]piperidin-1-yl}pyrimidin-4-yl)amino]-2-oxo-1-(propan-2-yl)-1,2-dihydroquinolin-3-yl}oxy)-N-methylacetamide] | 0.01 to 0.05 µM | 50 to 70% |
| CNC(=O)COc1cc2cc(Nc3nc(N4CCC(O[C@H]5C[C@H](N6CCN(c7ccc8c(c7)ncn8C7CCC(=O)NC7=O)CC6)C5)CC4)ncc3Cl)ccc2n(C(C)C)c1=O (some centres unmarked) [Compound 23] | < 0.01 µM | 50 to 70% |
| CNC(=O)COc1cc2cc(Nc3nc(N4CCC(O[C@H]5C[C@H](N6CCN(c7ccc8ncn(C9CCC(=O)NC9=O)c8c7)CC6)C5)CC4)ncc3Cl)ccc2n(C(C)C)c1=O (some centres unmarked) [Compound 24, 2-({6-[(5-chloro-2-{4-[(1r,3r)-3-{4-[1-(2,6-dioxopiperidin-3-yl)-1H-1,3-benzodiazol-6-yl]piperazin-1-yl}cyclobutoxy]piperidin-1-yl}pyrimidin-4-yl)amino]-2-oxo-1-(propan-2-yl)-1,2-dihydroquinolin-3-yl}oxy)-N-methylacetamide] | < 0.01 µM | ≥ 70% |
| CNC(=O)COc1cc2cc(Nc3nc(N4CCC(O[C@H]5C[C@H](N6CCN(c7cc(OC)c8c(c7)n(C)c(=O)n8C7CCC(=O)NC7=O)CC6)C5)CC4)ncc3Cl)ccc2n(C(C)C)c1=O (some centres unmarked) [Compound 25, 2-({6-[(5-chloro-2-{4-[(1r,3r)-3-{4-[1-(2,6-dioxopiperidin-3-yl)-7-methoxy-3-methyl-2-oxo-2,3-dihydro-1H-1,3-benzodiazol-5-yl]piperazin-1-yl}cyclobutoxy]piperidin-1-yl}pyrimidin-4-yl)amino]-2-oxo-1-(propan-2-yl)-1,2-dihydroquinolin-3-yl}oxy)-N-methylacetamide] | < 0.01 µM | – |
| CNC(=O)COc1cc2cc(Nc3nc(N4CCC(O[C@H]5C[C@H](N6CCN(c7cc(C)c8c(c7)n(C)c(=O)n8C7CCC(=O)NC7=O)CC6)C5)CC4)ncc3Cl)ccc2n(C(C)C)c1=O (some centres unmarked) [Compound 26, 2-({6-[(5-chloro-2-{4-[(1r,3r)-3-{4-[1-(2,6-dioxopiperidin-3-yl)-3,7-dimethyl-2-oxo-2,3-dihydro-1H-1,3-benzodiazol-5-yl]piperazin-1-yl}cyclobutoxy]piperidin-1-yl}pyrimidin-4-yl)amino]-2-oxo-1-(propan-2-yl)-1,2-dihydroquinolin-3-yl}oxy)-N-methylacetamide] | 0.01 to 0.05 µM | 50 to 70% |
| CNC(=O)COc1cc2cc(Nc3nc(N4CCC(O[C@H]5C[C@H](N6CCN(c7cc(F)c8c(c7F)n(C)c(=O)n8C7CCC(=O)NC7=O)CC6)C5)CC4)ncc3Cl)ccc2n(C(C)C)c1=O (some centres unmarked) [Compound 27, 2-({6-[(5-chloro-2-{4-[(1r,3r)-3-{4-[1-(2,6-dioxopiperidin-3-yl)-4,7-difluoro-3-methyl-2-oxo-2,3-dihydro-1H-1,3-benzodiazol-5-yl]piperazin-1-yl}cyclobutoxy]piperidin-1-yl}pyrimidin-4-yl)amino]-2-oxo-1-(propan-2-yl)-1,2-dihydroquinolin-3-yl}oxy)-N-methylacetamide] | < 0.01 µM | ≥ 70% |
| CNC(=O)COc1cc2cc(Nc3nc(N4CCC(O[C@H]5C[C@H](N6CCN(c7ccc8c(c7F)n(C(C)C)c(=O)n8C7CCC(=O)NC7=O)CC6)C5)CC4)ncc3Cl)ccc2n(C(C)C)c1=O (some centres unmarked) [Compound 28, 2-({6-[(5-chloro-2-{4-[(1r,3r)-3-{4-[1-(2,6-dioxopiperidin-3-yl)-4-fluoro-2-oxo-3-(propan-2-yl)-2,3-dihydro-1H-1,3-benzodiazol-5-yl]piperazin-1-yl}cyclobutoxy]piperidin-1-yl}pyrimidin-4-yl)amino]-2-oxo-1-(propan-2-yl)-1,2-dihydroquinolin-3-yl}oxy)-N-methylacetamide] | < 0.01 µM | ≥ 70% |
| CNC(=O)COc1cc2cc(Nc3nc(N4CCC(O[C@H]5C[C@H](N6CCN(c7cc(F)c8c(c7)n(C(C)C)c(=O)n8C7CCC(=O)NC7=O)CC6)C5)CC4)ncc3Cl)ccc2n(C(C)C)c1=O (some centres unmarked) [Compound 29, 2-({6-[(5-chloro-2-{4-[(1r,3r)-3-{4-[1-(2,6-dioxopiperidin-3-yl)-7-fluoro-2-oxo-3-(propan-2-yl)-2,3-dihydro-1H-1,3-benzodiazol-5-yl]piperazin-1-yl}cyclobutoxy]piperidin-1-yl}pyrimidin-4-yl)amino]-2-oxo-1-(propan-2-yl)-1,2-dihydroquinolin-3-yl}oxy)-N-methylacetamide] | < 0.01 µM | ≥ 70% |
| CNC(=O)COc1cc2cc(Nc3nc(N4CCC(O[C@H]5C[C@H](N6CCN(c7cc(C)c8c(c7)CN(C7CCC(=O)NC7=O)C8=O)CC6)C5)CC4)ncc3Cl)ccc2n(C(C)C)c1=O (some centres unmarked) [Compound 36, 2-({6-[(5-chloro-2-{4-[(1r,3r)-3-{4-[2-(2,6-dioxopiperidin-3-yl)-7-methyl-1-oxo-3H-isoindol-5-yl]piperazin-1-yl}cyclobutoxy]piperidin-1-yl}pyrimidin-4-yl)amino]-1-isopropyl-2-oxoquinolin-3-yl}oxy)-N-methylacetamide] | < 0.01 µM | 50 to 70% |
| CNC(=O)COc1cc2cc(Nc3nc(N4CCC(O[C@H]5C[C@H](N6CCC(c7cc(C)c8c(c7)CN(C7CCC(=O)NC7=O)C8=O)CC6)C5)CC4)ncc3Cl)ccc2n(C(C)C)c1=O (some centres unmarked) [Compound 37, 2-({6-[(5-chloro-2-{4-[(1r,3r)-3-{4-[2-(2,6-dioxopiperidin-3-yl)-7-methyl-1-oxo-3H-isoindol-5-yl]piperidin-1-yl}cyclobutoxy]piperidin-1-yl}pyrimidin-4-yl)amino]-1-isopropyl-2-oxoquinolin-3-yl}oxy)-N-methylacetamide] | < 0.01 µM | ≥ 70% |
| CNC(=O)COc1cc2cc(Nc3nc(N4CCC(O[C@H]5C[C@H](N6CC[C@@H](c7cc(C)c8c(c7F)CN([C@H]7CCC(=O)NC7=O)C8=O)[C@@H](F)C6)C5)CC4)ncc3Cl)ccc2n(C(C)C)c1=O [Compound 38, 2-({6-[(5-chloro-2-{4-[(1r,3r)-3-[(3R,4S)-4-{2-[(3S)-2,6-dioxopiperidin-3-yl]-4-fluoro-7-methyl-1-oxo-3H-isoindol-5-yl}-3-fluoropiperidin-1-yl]cyclobutoxy]piperidin-1-yl}pyrimidin-4-yl)amino]-1-isopropyl-2-oxoquinolin-3-yl}oxy)-N-methylacetamide] | < 0.01 µM | 50 to 70% |
| CNC(=O)COc1cc2cc(Nc3nc(N4CCC(O[C@H]5C[C@H](N6CC[C@H](c7cc(C)c8c(c7F)CN([C@H]7CCC(=O)NC7=O)C8=O)[C@H](F)C6)C5)CC4)ncc3Cl)ccc2n(C(C)C)c1=O [Compound 39, 2-({6-[(5-chloro-2-{4-[(1r,3r)-3-[(3S,4R)-4-{2-[(3S)-2,6-dioxopiperidin-3-yl]-4-fluoro-7-methyl-1-oxo-3H-isoindol-5-yl}-3-fluoropiperidin-1-yl]cyclobutoxy]piperidin-1-yl}pyrimidin-4-yl)amino]-1-isopropyl-2-oxoquinolin-3-yl}oxy)-N-methylacetamide] | < 0.01 µM | ≥ 70% |

Source: US20240190841A1, “MODULATORS OF BCL6 PROTEOLYSIS AND ASSOCIATED METHODS OF USE” (Arvinas Operations, Inc., priority 2022, published 2024)
